Experimental findings from patent publication US7595401B2, “Therapeutic compounds and their use in cancer” (Myriad Pharmaceuticals, Inc., priority 2006, dated 2009) are described below.

Each structure is given as a SMILES string.

Broadly, the % Inhibition is the percentage by which the read-out fell short of the control. A low value points to little suppression. What is called IC50 is the concentration that gives 50% inhibition. Higher therefore signals lower potency.

For one assay, the system named is purified human Hsp90. The experiment in a line: Binding Assay: fluorescence polarization with BODIPY-labeled geldanamycin. To be noted: 5 μM compound, BODIPY-GM 10 nM, Hsp90 30 nM. In a few lines:
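Compounds in 2% DMSO final compete with 10 nM BODIPY-GM for 30 nM purified human Hsp90, incubated overnight at room temperature in pH 7.3 HEPES buffer containing Na2MoO4 and DTT. Polarization (mP, ex/em 485/530) normalized to DMSO gives percent inhibition; autofluorescence-confounded data excluded.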
Turning to `COc1ccc(OC)c(Sc2nc3c(N)ncn(CCC(NC(=O)OC(C)(C)C)C4CCSCC4)c-3n2)c1` (stereo not drawn) [Example 669, tert-Butyl[3-{6-amino-8-[(2,5-dimethoxyphenyl)thio]-3H-purin-3-yl}-1-(tetrahydro-2H-thiopyran-4-yl)propyl]carbamate], the “% Inhibition at 5 μM Compound Concentration” value (“% Inhibition” below) is given as 10%.

As to `CC(=O)c1ccc(CCn2cnc(N)c3nc(Sc4cc5c(cc4Br)OCO5)nc2-3)cc1` [Example 160, 1-(4-{2-[6-amino-8-(6-bromo-benzo[1,3]dioxol-5-ylsulfanyl)-purin-3-yl]-ethyl}-phenyl)-ethanone], the “% Inhibition” value was 0%.

As for `COc1ccc(OC)c(Sc2nc3c(N)ncn(CC(c4ccccc4)C4CCCCC4)c-3n2)c1` (stereo not drawn) [Example 180, 3-(2-cyclohexyl-2-phenyl-ethyl)-8-(2,5-dimethoxy-phenylsulfanyl)-3H-purin-6-ylamine], the “% Inhibition” value was over 10%.

In the case of `Nc1ncnc2c1nc(Sc1ccc3c(c1)OCO3)n2CCc1ccc([N+](=O)[O-])cc1` [Example 7, 8-(Benzo[1,3]dioxol-5-ylsulfanyl)-9-[2-(4-nitro-phenyl)-ethyl]-9H-purin-6-ylamine], the “% Inhibition” value was determined as 22%.

Consider `CCC(Cn1cnc(N)c2nc(Sc3cc4c(cc3Br)OCO4)nc1-2)c1ccccc1` (stereo not drawn) [Example 58, 8-(6-bromo-benzo[1,3]dioxol-5-ylsulfanyl)-3-(2-phenyl-butyl)-3H-purin-6-ylamine], for which the “% Inhibition” value is on record as 8%.

Regarding `CC12CCC(CC(CCn3cnc(N)c4nc(Sc5cc6c(cc5Br)OCO6)nc3-4)C1)O2` (stereo not drawn) [Example 608, 8-[(6-Bromo-1,3-benzodioxol-5-yl)thio]-3-{2-[1-methyl-8-oxabicyclo[3.2.1]oct-3-yl]ethyl}-3 H-purin-6-amine], the “% Inhibition” value was 5.00%.

Turning to `Nc1ncnc2c1nc(Sc1ccc3c(c1)OCO3)n2CCCn1cccc1` [Example 51, 8-(Benzo[1,3]dioxol-5-ylsulfanyl)-9-(3-pyrrol-1-yl-propyl)-9H-purin-6-ylamine], the “% Inhibition” value came to 52%.

Consider `CC(C)C(Cn1cnc(N)c2nc(Sc3cc4c(cc3Br)OCO4)nc1-2)c1ccccc1` (stereo not drawn) [Example 127, 8-(6-bromo-benzo[1,3]dioxol-5-ylsulfanyl)-3-(3-methyl-2-phenyl-butyl)-3H-purin-6-ylamine], for which the “% Inhibition” value was determined as 51%.

As for `COc1ccc(OC)c(Sc2nc3c(N)ncnc3n2CCc2ccc(N)cc2)c1` [Example 216, 9-[2-(4-Amino-phenyl)-ethyl]-8-(2,5-dimethoxy-phenylsulfanyl)-9H-purin-6-ylamine], the “% Inhibition” value was determined as 78%.

`CCCNC(=N)N1CCC(CCn2cnc(N)c3nc(Sc4cc5c(cc4Br)OCO5)nc2-3)CC1` [Example 619, 4-(2-{6-Amino-8-[(6-bromo-1,3-benzodioxol-5-yl)thio]-3 H-purin-3-yl}ethyl)-N-propylpiperidine-1-carboximidamide]: the “% Inhibition” value was 76.00%.

The same assay, now with this note: BODIPY-GM 10 nM, Hsp90 30 nM.
Turning to `Nc1ncnc2c1nc(Sc1cc3c(cc1Br)OCO3)n2CCC(N)C1CC1` (stereo not drawn) [Example 687, 9-(3-Amino-3-cyclopropylpropyl)-8-[(6-bromo-1,3-benzodioxol-5-yl)thio]-9H-purin-6-amine], the IC50 worked out at 80 nM.

`CC(C)(C)OC(=O)CN1CCCCC1CCn1c(Sc2cc3c(cc2Br)OCO3)nc2c(N)ncnc21` (stereo not drawn) [Example 645, tert-Butyl [2-(2-{6-amino-8-[(6-bromo-1,3-benzodioxol-5-yl)thio]-9 H-purin-9-yl}ethyl)piperidin-1-yl]acetate] registered an IC50 of 450 nM.

Compound `COc1ccc(OC)c(Sc2nc3c(N)ncnc3n2CCc2ccccc2)c1` [Example 1, 8-(2,5-Dimethoxy-phenylsulfanyl)-9-phenethyl-9H-purin-6-ylamine] registered an IC50 of 340 nM.

For `COc1c(F)cc(Sc2nc3c(N)ncnc3n2CCC2CCN(C(C)=O)CC2)cc1Cl` [Example 569, 9-[2-(1-Acetylpiperidin-4-yl)ethyl]-8-[(3-chloro-5-fluoro-4-methoxyphenyl)thio]-9 H-purin-6-amine], the IC50 is over 5000 nM.

Compound `CCCCNC(=O)Nc1ccc(CCn2c(Sc3cc4c(cc3Br)OCO4)nc3c(N)ncnc32)cc1` [Example 281, N-[4-(2-{6-Amino-8-[(6-bromo-1,3-benzodioxol-5-yl)thio]-9H-purin-9-yl}ethyl)phenyl]-N′-butylurea] displayed an IC50 of 120 nM.

In turn, `COc1ccc(OC)c(Sc2nc3c(N)ncnc3n2CCc2ccccc2OC)c1` [Example 85, 8-(2,5-Dimethoxy-phenylsulfanyl)-9-[2-(2-methoxy-phenyl)-ethyl]-9H-purin-6-ylamine] displayed an IC50 of 360 nM.

On to `CC(C)(C)OC(=O)NC(CCn1c(Sc2cc3c(cc2Br)OCO3)nc2c(N)ncnc21)C1CC1` (stereo not drawn) [Example 662, tert-Butyl (3-{6-amino-8-[(6-bromo-1,3-benzodioxol-5-yl)thio]-9H-purin-9-yl}-1-cyclopropylpropyl)carbamate], for which the IC50 worked out at 300 nM.

Compound `Nc1ncnc2c1nc(Sc1cc3c(cc1Br)OCO3)n2CCc1cccnc1` [Example 151, 8-(6-Bromo-benzo[1,3]dioxol-5-ylsulfanyl)-9-(2-pyridin-3-yl-ethyl)-9H-purin-6-ylamine] had a half-maximal inhibitory concentration (IC50) of 50 nM.

Take `Nc1ncnc2c1nc(Sc1cc3c(cc1Br)OCO3)n2CCCc1ccccc1` [Example 43, 8-(6-Bromo-benzo[1,3]dioxol-5-ylsulfanyl)-9-(3-phenyl-propyl)-9H-purin-6-ylamine]: the IC50 worked out at 700 nM.

Take `Nc1ncnc2c1nc(Sc1cc3c(cc1Br)OCO3)n2CCc1ccsc1` [Example 201, 8-(6-Bromo-benzo[1,3]dioxol-5-ylsulfanyl)-9-(2-thiophen-3-yl-ethyl)-9H-purin-6-ylamine]: the IC50 turned out to be 72 nM. This IC50 is about 9.7-fold lower than that of the compound before.

Compound `Nc1ncnc2c1nc(Sc1cc3c(cc1Br)OCO3)n2CC[C@H]1CCCCN1` [Example 475, 8-[(6-Bromo-1,3-benzodioxol-5-yl)thio]-9-{2-[(2R)-piperidin-2-yl]ethyl}-9 H-purin-6-amine] came in with a 50% inhibitory concentration (IC50) of 172 nM.

In the case of `Nc1ncnc2c1nc(Sc1ccc3c(c1)OCO3)n2CCCn1cccc1` [Example 51, 8-(Benzo[1,3]dioxol-5-ylsulfanyl)-9-(3-pyrrol-1-yl-propyl)-9H-purin-6-ylamine], the IC50 worked out at 1500 nM.

In the case of `C[C@H](O)C(=O)N1CCC(CCn2c(Sc3nc4cccc(Cl)c4s3)nc3c(N)ncnc32)CC1` [Example 775, (2S)-1-[4-(2-{6-Amino-8-[(7-chloro-1,3-benzothiazol-2-yl)thio]-9H-purin-9-yl}ethyl)piperidin-1-yl]-1-oxopropan-2-ol], the IC50 came to 1800 nM.

Turning to `COc1ccc(OC)c(Sc2nc3c(N)ncnc3n2CCc2ccccc2Cl)c1` [Example 25, 9-[2-(2-Chloro-phenyl)-ethyl]-8-(2,5-dimethoxy-phenylsulfanyl)-9H-purin-6-ylamine], the IC50 stood at 41 nM.

With `COc1ccc(OC)c(Sc2nc3c(N)ncnc3n2CCc2ccc(S(=O)(=O)NC(C)(C)C)cc2)c1` [Example 275, 4-(2-{6-Amino-8-[(2,5-dimethoxyphenyl)thio]-9H-purin-9-yl}ethyl)-N-(tert-butyl)benzenesulfonamide], the concentration for half-maximal inhibition (IC50) is over 3000 nM.

Turning to `COc1ccc(OC)c(Sc2nc3c(N)ncnc3n2CCc2ccc(N)cc2)c1` [Example 216, 9-[2-(4-Amino-phenyl)-ethyl]-8-(2,5-dimethoxy-phenylsulfanyl)-9H-purin-6-ylamine], the 50% inhibitory concentration (IC50) was over 8000 nM.

`COc1ccc2sc(Sc3nc4c(N)ncnc4n3CCC3CCN(C(C)=O)CC3)nc2c1` [Example 658, 9-[2-(1-Acetylpiperidin-4-yl)ethyl]-8-[(5-methoxy-1,3-benzothiazol-2-yl)thio]-9H-purin-6-amine] registered an IC50 of over 5000 nM.
